Our source for the IC50 values is US8940893B2, “Heteroaromatic compounds as BTK inhibitors” (Boehringer Ingelheim International GmbH, priority 2013, dated 2015).

Sequence of full-length human His-tagged BTK (Q06187 whole entry): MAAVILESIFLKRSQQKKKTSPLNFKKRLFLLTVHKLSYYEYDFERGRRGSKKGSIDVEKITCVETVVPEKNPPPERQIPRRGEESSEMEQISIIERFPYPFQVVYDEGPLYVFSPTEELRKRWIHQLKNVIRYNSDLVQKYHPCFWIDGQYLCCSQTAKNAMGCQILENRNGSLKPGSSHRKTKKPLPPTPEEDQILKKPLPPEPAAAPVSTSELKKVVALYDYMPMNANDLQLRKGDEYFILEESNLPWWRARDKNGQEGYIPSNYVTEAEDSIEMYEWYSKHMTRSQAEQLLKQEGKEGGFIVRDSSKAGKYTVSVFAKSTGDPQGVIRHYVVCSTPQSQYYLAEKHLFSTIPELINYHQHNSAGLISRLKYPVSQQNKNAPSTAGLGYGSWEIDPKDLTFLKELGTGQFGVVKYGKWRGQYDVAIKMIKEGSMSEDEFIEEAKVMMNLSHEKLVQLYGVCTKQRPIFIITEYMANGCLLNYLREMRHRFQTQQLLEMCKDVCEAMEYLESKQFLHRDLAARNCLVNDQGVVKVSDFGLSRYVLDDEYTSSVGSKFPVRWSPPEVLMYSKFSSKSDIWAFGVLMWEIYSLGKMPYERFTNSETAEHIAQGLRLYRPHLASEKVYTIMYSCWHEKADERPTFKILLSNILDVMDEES

For the assay, the target named is full-length human His-tagged BTK (Homo sapiens (Human), UniProt Q06187). As to the kind of experiment: BTK HTRF assay (Cisbio KinEASE-TK). Type of assay: biochemical. The note with it: 6 nM BTK, 15 min preincubation at 28° C., 30 uM ATP. The method, then:
BTK Assay An HTRF assay (Cisbio KinEASE-TK cat #62TKOPEC) was performed to quantitate the ability of test compounds to inhibit BTK mediated phosphorylation of substrate. […] Then, 1 uM of TK substrate-biotin and 30 uM ATP were added and incubated for an additional 30 minutes at 28° C. Phospohrylation was detected by adding 62.5 nM Streptavidin-XL665 and TK-Antibody Cryptate diluted 1:100 in HTRF detection buffer (Cisbio cat #62SDBRDF) and incubated for 60 minutes at RT. The plate was read on an Envision plate reader and the fluoresence is measured at 620 nm (cryptate) and 665 nm (XL665). A ratio is calculated (665/620) and converted to POC relative to control and blank wells. Assay Buffer: […]
Background: Time-resolved FRET reads energy transfer from a long-lived donor to a nearby acceptor.
By IC50 is commonly meant the concentration that inhibits the measured activity by half. For `C=CC(=O)N1CC2(CC(n3nc(-c4ccc(Oc5ccccc5)cc4)c4c(N)ncnc43)C2)C1` [Example 1], it took 1 nM to reach half-maximal inhibition (IC50).

Regarding `CN(C)C/C=C/C(=O)N1CC2(CC(n3nc(-c4ccc(Oc5ccccc5)cc4)c4c(N)ncnc43)C2)C1` [Example 2], the IC50 was 1.8 nM. Against the preceding compound, the IC50 is about 1.8-fold higher.

`CC#CC(=O)N1CC2(CC(n3nc(-c4ccc(Oc5ccccc5)cc4)c4c(N)ncnc43)C2)C1` [Example 3] came in with an IC50 of 0.83 nM.

For the compound `Nc1ncnc2c1c(-c1ccc(Oc3ccccc3)cc1)nn2C1CC2(C1)CN(C(=O)C1CO1)C2` (stereo not shown) [Example 4], half-maximal inhibition (IC50) required 13 nM.

Take `C=CC(=O)N1CCC2(CC(n3nc(-c4ccc(Oc5ccccc5)cc4)c4c(N)ncnc43)C2)C1` (stereo not shown) [Example 5]: inhibition was half-maximal at 0.87 nM (IC50).

Regarding `C=CC(=O)N1CC2(CC(n3nc(-c4ccc(-c5cnc(Cc6ccccc6)n(C)c5=O)cc4F)c4c(N)ncnc43)C2)C1` [Example 6], 0.85 nM corresponded to half-maximal inhibition (IC50).

`CC#CC(=O)N1CC2(CC(n3nc(-c4ccc(Oc5ccccc5)nc4)c4c(N)ncnc43)C2)C1` [Example 7] showed an IC50 of 1.1 nM.

Consider `C=CC(=O)N1CC2(CC(n3nc(-c4ccc(Oc5ccccc5)nc4)c4c(N)ncnc43)C2)C1` [Example 8], for which the half-maximal inhibitory concentration (IC50) was 2.4 nM.

As for `C/C=C/C(=O)N1CC2(CC(n3nc(-c4ccc(Oc5ccccc5)nc4)c4c(N)ncnc43)C2)C1` [Example 9], it took 83 nM to reach half-maximal inhibition (IC50). Compared with the last compound, the IC50 is about 35-fold higher.

With `CC#CC(=O)N1CC[C@]2(C1)C[C@@H](n1nc(-c3ccc(Oc4ccccc4)cn3)c3c(N)ncnc31)C2` [Example 13], the IC50 was 0.74 nM.

`CN(C)C/C=C/C(=O)N1CC2(CC(n3nc(-c4ccc(Oc5ccccc5)cn4)c4c(N)ncnc43)C2)C1` [Example 15] displayed an IC50 of 32 nM.

`CN(C)C/C=C/C(=O)N1CC[C@]2(C1)C[C@@H](n1nc(-c3ccc(Oc4ccccc4)cn3)c3c(N)ncnc31)C2` [Example 16] gave a 50% inhibitory concentration (IC50) of 8.1 nM. Compared with the last compound, the IC50 is about 4-fold lower.

Regarding `CN(C)C/C=C/C(=O)N1CC[C@]2(C1)C[C@H](n1nc(-c3ccc(Oc4ccccc4)cn3)c3c(N)ncnc31)C2` [Example 17], the half-inhibitory concentration (IC50) was determined as 7.1 nM.
